Measurements from US20260176285A1, “SALT OF DIOXANE QUINOLINE COMPOUND, CRYSTAL FORM THEREOF, PREPARATION METHODS THEREFOR AND USES THEREOF” (Beijing Scitech-MQ Pharmaceuticals Limited, priority 2022, published 2026).

Columns and labels:
[1] = Dynamic solubility in water, SGF, FaSSIF and FeSSIF; assay type: physicochemical; set-up: S (dynamic solubility): unit not given here; details: listed as Mucate salt crystal form A-I; for S (dynamic solubility): 37° C., feed 10 mg/mL
Summary of the method: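 Free form and salt crystal forms tested over time in water, SGF (pH 1.8), FaSSIF (pH 6.5) and FeSSIF (pH 5.0), simulated fluids made with SIF powder. At each time point samples were centrifuged, passed through 0.45 μm PTFE, and filtrate concentration (HPLC) and pH measured.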

[2] = Hygroscopicity by dynamic moisture sorption (DVS); assay type: physicochemical; details: DVS, listed as Mucate salt crystal form A-I
Summary of the method: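 Mass change of salt and free-form crystal samples recorded at 25° C over a 0% RH-95% RH-0% RH cycle. Steps were 10% RH (last step 5%) with a dm/dt equilibrium criterion of 0.002%/min.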

[3] = Solid-state stability evaluation (XRPD, HPLC); assay type: physicochemical; details: listed as Mucate salt crystal form A-I
Experimental: The following 6 test samples were placed under 25° C./60% RH and 40° C./75% RH conditions for 1 week, and then the physical and chemical stability of the samples was tested by XRPD and HPLC.
At the same time, after the p-toluenesulfonate salt crystal form A-II and crystal form B-III solids were placed at 80° C. for 24 hours, the physical and chemical stability of the samples were tested by XRPD and HPLC.

[4] = test system: human lung cancer cells EBC-1; test: Efficacy in nude mouse tumor-bearing model of human lung cancer cells EBC-1; assay type: in vivo, Balb/c nude mouse
From the text: In this assay, the free compound of formula (I) of the present application and different salts of the compound prepared in Examples 1, 2 and 5 were orally administered to a nude mouse tumor-bearing model of human lung cancer cells EBC-1 to study their effects on tumor growth.
Preparation of test compounds: an appropriate weight of the test compound (including the free form of the compound of formula (I) and different salts of the compound prepared in Examples 1, 2 and 5) was weighed, completely suspended/dissolved in an appropriate volume of 0.1% sodium carboxymethyl cellulose, stirred and vortexed to give a uniform solution or suspension.
Methods: All assays were authorized by the Animal Welfare Committee. EBC-1 in the logarithmic growth phase was inoculated into immune-deficient nude mice (BALB/c nude, female, 6-8 weeks old, weighing 18±2 g), subcutaneously on the right back, with a cell inoculation amount of 5×10^6/mouse. After the tumor grew to 150-200 mm^3, the animals were randomly divided into groups, 6 mice per group. The dose of each test substance was set at 15 mg/kg and 7.5 mg/kg (both based on the concentration of the effective formula (I) compound), and administered once a day for about 3 weeks. The test compounds were freshly prepared each day before use. During the assay, the tumor diameter was measured twice a week, and the mice were weighed at the same time. The calculation formula of tumor volume (TV) is: TV=1/2×a×b^2, where a and b represent length and width, respectively. The relative tumor volume (RTV) was calculated based on the measurement results, and the calculation formula is: RTV=Vt/V0, wherein V0 is the tumor volume measured at the time of cage grouping and dosing initiation (i.e., d0), and Vt is the tumor volume at each measurement. The evaluation index of antitumor activity is the relative tumor proliferation rate T/C (%), calculated as follows: T/C (%)=(TRTV/CRTV)×100%, TRTV: RTV of the treatment group; CRTV: RTV of the negative control group. T and C represent the average tumor volume at a certain time point in the drug administration group and the control group, respectively.

In the case of `O=C(Nc1ccc(F)cc1)C1(C(=O)Nc2ccc(Oc3ccnc4cc(OCCCN5CCOCC5)c5c(c34)OCCO5)c(F)c2)CC1` [Example 1, N-(3-fluoro-4-((5-(3-morpholinopropoxy)-2,3-dihydro-[1,4]dioxano[2,3-f]quinolin-10-yl)oxy)phenyl)-N-(4-fluorophenyl)cyclopropane-1,1-dicarboxamide], the “S (dynamic solubility)” value ([1]; FaSSIF, 1 hour) is reported as 0.0036, the “pH of the filtrate” value ([1]; FaSSIF, 1 hour) is reported as 6.3 and the “S (dynamic solubility)” value ([1]; FaSSIF, 2 hours) is reported as 0.0048. The “pH of the filtrate” value ([1]; FaSSIF, 2 hours) was 6.2, the “S (dynamic solubility)” value ([1]; FaSSIF, 4 hours) was 0.0042 and the “pH of the filtrate” value ([1]; FaSSIF, 4 hours) was 6.2. For the same compound, the “S (dynamic solubility)” value ([1]; FaSSIF, 24 hours) was 0.0070, the “pH of the filtrate” value ([1]; FaSSIF, 24 hours) was 5.5 and the “S (dynamic solubility)” value ([1]; FeSSIF, 1 hour) was 1.3. The “pH of the filtrate” value ([1]; FeSSIF, 1 hour) was 4.9, the “S (dynamic solubility)” value ([1]; FeSSIF, 2 hours) was 1.6 and the “pH of the filtrate” value ([1]; FeSSIF, 2 hours) was 4.9. For the same compound, the “S (dynamic solubility)” value ([1]; FeSSIF, 4 hours) was 1.8, the “pH of the filtrate” value ([1]; FeSSIF, 4 hours) was 4.9 and the “S (dynamic solubility)” value ([1]; FeSSIF, 24 hours) was 1.8. The “pH of the filtrate” value ([1]; FeSSIF, 24 hours) was 4.9, the “S (dynamic solubility)” value ([1]; H2O, 1 hour) was 0.11 and the “pH of the filtrate” value ([1]; H2O, 1 hour) was 4.5. For the same compound, the “S (dynamic solubility)” value ([1]; H2O, 2 hours) was 0.11, the “pH of the filtrate” value ([1]; H2O, 2 hours) was 4.4 and the “S (dynamic solubility)” value ([1]; H2O, 4 hours) was 0.13. The “pH of the filtrate” value ([1]; H2O, 4 hours) was 4.8, the “S (dynamic solubility)” value ([1]; H2O, 24 hours) was 0.11 and the “pH of the filtrate” value ([1]; H2O, 24 hours) was 4.7. For the same compound, the “S (dynamic solubility)” value ([1]; SGF, 1 hour) was 5.4, the “pH of the filtrate” value ([1]; SGF, 1 hour) was 3.1 and the “S (dynamic solubility)” value ([1]; SGF, 2 hours) was 5.2. The “pH of the filtrate” value ([1]; SGF, 2 hours) was 3.1, the “S (dynamic solubility)” value ([1]; SGF, 4 hours) was 5.1 and the “pH of the filtrate” value ([1]; SGF, 4 hours) was 3.1. For the same compound, the “S (dynamic solubility)” value ([1]; SGF, 24 hours) was 5.3, the “pH of the filtrate” value ([1]; SGF, 24 hours) was 3.2 and the “Moisture adsorption (25° C./80% RH)” value ([2]; 25° C./80% RH) was 2.09%. For the same compound, the Hygroscopicity ([2]; 25° C.) was “Hygroscopic”, the Purity ([3]; 25° C./60% RH, 1 week) was 99.54 area % and the Purity/initial purity ([3]; 25° C./60% RH, 1 week) was 100.0%. For the same compound, the Purity ([3]; 40° C./75% RH, 1 week) was 99.56 area %, the Purity/initial purity ([3]; 40° C./75% RH, 1 week) was 100.0% and the Purity ([3]; Starting) was 99.56 area %. For the same compound, the “T/C (relative tumor proliferation rate)” value ([4]; 7.5 mg/kg oral once a day, day 3) was 71.1%, the “T/C (relative tumor proliferation rate)” value ([4]; 7.5 mg/kg oral once a day, day 7) was 60.2% and the “T/C (relative tumor proliferation rate)” value ([4]; 7.5 mg/kg oral once a day, day 10) was 49.9%. For the same compound, the “T/C (relative tumor proliferation rate)” value ([4]; 7.5 mg/kg oral once a day, day 14) was 46.9%, the “T/C (relative tumor proliferation rate)” value ([4]; 7.5 mg/kg oral once a day, day 18) was 47.4% and the “T/C (relative tumor proliferation rate)” value ([4]; 7.5 mg/kg oral once a day, day 21) was 43.73%. For the same compound, the “T/C (relative tumor proliferation rate)” value ([4]; 15 mg/kg oral once a day, day 3) was 66.3%, the “T/C (relative tumor proliferation rate)” value ([4]; 15 mg/kg oral once a day, day 7) was 40.4% and the “T/C (relative tumor proliferation rate)” value ([4]; 15 mg/kg oral once a day, day 10) was 30.9%. The “T/C (relative tumor proliferation rate)” value ([4]; 15 mg/kg oral once a day, day 14) was 25.3%, the “T/C (relative tumor proliferation rate)” value ([4]; 15 mg/kg oral once a day, day 18) was 25.4% and the “T/C (relative tumor proliferation rate)” value ([4]; 15 mg/kg oral once a day, day 21) was 19.41%.
